# Results reported in patent US20070219117A1, “BIDENTATE MOTIF AND METHODS OF USE” (MEDVET SCIENCE PTY LTD, priority 2003, published 2007).
# “Also recorded” adds a separate entry of the source.
# Key:
# Format in all cases: cell-based
# [1] = tested on: primary human neutrophils; assay: Survival of primary human neutrophils, annexin V-FITC; details: for effect on neutrophil survival in response to low concentrations of GM-CSF: 15 μM inhibitor; for cell survival: neutrophils
# Method: Survival was determined by annexin V-FITC (Roche) staining essentially as previously described (Guthridge et al., 2000). […] After 48 hours, cells were stained with the 4H1 anti-GMRα mAb and annexin V-FITC. The proportion of GMRα-positive cells remaining viable (annexin V-FITC-negative) after culture was analysed by flow cytometry. […] In some experiments forskolin ICN Biochemicals), H89 (Seikaguku Corporation), LY294002 (Cayman Chemical Company), genestein (Sigma) or AG490 (Biomol) were used.
# TF-1 cells = assay: TF-1 cell survival, annexin V-FITC flow cytometry; details: data not shown
# Method: Survival was determined by annexin V-FITC (Roche) staining essentially as previously described (Guthridge et al., 2000). Briefly, transduced fetal liver cells were plated in IMDM and either 0.1% or 10% FCS containing either no GM-CSF, […] hGM-CSF or a positive control cytokine cocktail containing 50 ng/ml IL-6 (Peprotech), 100 ng/ml mouse SCF and 10 ng/ml G-CSF (Amgen). After 48 hours, cells were stained with the 4H1 anti-GMRα mAb and annexin V-FITC. The proportion of GMRα-positive cells remaining viable (annexin V-FITC-negative) after culture was analysed by flow cytometry. The regulation of TF-1 cell survival by GM-CSF was determined as previously described (Guthridge et al., 2000; Guthridge et al., 2004). To examine the survival of primary human neutrophils in response to GM-CSF, we modified our previously described assay (Begley et al., 1986). Neutrophils purified by centrifugation through Lymphoprep (Axis-Shield) were plated at 1.5×10^5 cells/ml in IMDM/0.5% FCS containing different concentrations of GM-CSF and cell survival was examined as previously described (Guthridge et al., 2000). In some experiments forskolin ICN Biochemicals), H89 (Seikaguku Corporation), LY294002 (Cayman Chemical Company), genestein (Sigma) or AG490 (Biomol) were used.
# Akt = Akt Ser473 phosphorylation immunoblot in CTL-EN cells expressing the wt GM-CSF receptor; details: 1 pM GM-CSF, compared with 1000 pM GM-CSF
# Method: (§1) Cells were factor-deprived in RPMI containing 0.1% FCS for 24 h and then stimulated for 10 min with different GM-CSF concentrations before lysis as previously described (Guthridge et al., 2000). Human mononuclear cells from normal donors and from leukemic patients were separated from peripheral blood by centrifugation over ficoll. The βc subunit was immunoprecipitated using a mixture of 1C1 and 8E4 anti-βc mAb (1C1/8E4)(1 μg each/immunoprecipitation) and immunoprecipitates subjected to SDS-PAGE and immunoblot analysis. Affinity purified anti-14-3-3 pAb (EB1) were used at a dilution of 1:5000 (Guthridge et al., 2000). Anti-MAP2 mAb (MK12)(Pharmingen) was used at a dilution of 1:5000. Anti-p85 pAb antibodies (UBI) were used at a dilution of 1:1000. The 4G10 anti-phosphotyrosine mAb (UBI) was used at 1 pg/ml. The anti-active-ERK pAb (Promega) was used at 50 ng/ml, the anti-phosphorylated STAT5 mAb (Zymed) was used at 2 μg/ml, the anti-phospho-JAK2 pAb (Affinity Bioreagents) was used at 0.5 μg/ml. Affinity purified anti-βc phospho-577 pAb (Guthridge et al., 2004) were used at a dilution of 1:1000. Antibodies to phospho-Ser585 of βc (Guthridge et al., 2000) were used at a dilution of 1:5000. The phosphorylation of Akt in response to GM-CSF was examined in CTL-EN cells electroporated with the pCMV-AKT-HA plasmid (30 μg DNA/1×10^7 cells)(kindly provided by P. N. Tsichlis). […]
# PKA = assay: Protein kinase A (PKA) kinase assay in TF-1 cells; details: 1 pM GM-CSF, up to 30 min, compared with 1000 pM
# Method: TF-1 cells were factor-deprived overnight in DMEM containing 0.5% FCS. Cells (4×10^6) were stimulated with GM-CSF or forskolin before lysis in 1 ml 20 mM Tris HCl pH 7.4, 0.5 mM EDTA, 0.5 mM EGTA, 10 mM 2-mercaptoethanol, 5% Glycerol and 2 mM NaF by 20 strokes of a dounce homogenizer on ice. The lysate was centrifuged at 170 g for 15 min and the supernatant then centrifuged at 100,000 g for 1 h at 4° C. The resulting pellet was resuspended in NP40 lysis buffer with a protease/phosphatase inhibitor cocktail (Guthridge et al., 2000; Guthridge et al., 2004). Lysate (2 μl) was then tested for PKA activity by adding 40 μM kemptide, 0.25 μCi [y-^32P] ATP, 1 μM cold ATP, in a buffer containing 10 mM MgCl2, 10 mM Tris HCl pH7.4, 1 mM β-glycerol phosphate and 1 mM DTT. Reactions (20 μl) were incubated at 30° C. for 30 min and aliquots were examined for 32P-labelled kemptide on p81 phosphocellulose filters (Whatman) and liquid scintillation counting (Guthridge et al., 2000).
# JAK2, STAT5 and ERK = assay: Immunoblot of TF-1 lysates for phospho-JAK2, phospho-STAT5 and active ERK; details: also βc tyrosine phosphorylation and p85 recruitment
# Method: as §1
# [2] = tested on: βc subunit of the GM-CSF receptor (Ser585, Tyr577); assay: βc immunoprecipitation and phospho-specific immunoblot in TF-1 cells after GM-CSF titration
# Method: Cells were factor-deprived in RPMI containing 0.1% FCS for 24 h and then stimulated for 10 min with different GM-CSF concentrations before lysis as previously described (Guthridge et al., 2000). Human mononuclear cells from normal donors and from leukemic patients were separated from peripheral blood by centrifugation over ficoll. The βc subunit was immunoprecipitated using a mixture of 1C1 and 8E4 anti-βc mAb (1C1/8E4)(1 μg each/immunoprecipitation) and immunoprecipitates subjected to SDS-PAGE and immunoblot analysis. Affinity purified anti-14-3-3 pAb (EB1) were used at a dilution of 1:5000 (Guthridge et al., 2000). Anti-MAP2 mAb (MK12)(Pharmingen) was used at a dilution of 1:5000. Anti-p85 pAb antibodies (UBI) were used at a dilution of 1:1000. The 4G10 anti-phosphotyrosine mAb (UBI) was used at 1 pg/ml. The anti-active-ERK pAb (Promega) was used at 50 ng/ml, the anti-phosphorylated STAT5 mAb (Zymed) was used at 2 μg/ml, the anti-phospho-JAK2 pAb (Affinity Bioreagents) was used at 0.5 μg/ml. Affinity purified anti-βc phospho-577 pAb (Guthridge et al., 2004) were used at a dilution of 1:1000. Antibodies to phospho-Ser585 of βc (Guthridge et al., 2000) were used at a dilution of 1:5000. The phosphorylation of Akt in response to GM-CSF was examined in CTL-EN cells electroporated with the pCMV-AKT-HA plasmid (30 μg DNA/1×10^7 cells)(kindly provided by P. N. Tsichlis). 24 h after electroporation the cells were factor-deprived overnight in DMEM/0.5% FCS. Cells were then stimulated (10^7 cells/time point) with either 1 pM or 1000 pM GM-CSF and lysed in RIPA buffer (150 mM NaCl, 1.0% NP40, 0.5% Deoxycholate, 0.1% SDS, 50 mM Tris pH8.0) and subjected to SDS-PAGE and immunoblot analysis with the anti-phospho-Akt Ser473 pAb (1:1000)(Cell Signalling Technologies).
molecule,measurement,setting,value
O=S(=O)(NCCNC/C=C/c1ccc(Br)cc1)c1cccc2cnccc12 [H89],effect on GM-CSF-promoted survival of neutrophils,[1]; neutrophils stimulated with GM-CSF,reduced
same,effect on ability of GM-CSF to promote survival in TF-1 cells,TF-1 cells,reduced
O=c1c(-c2ccc(O)cc2)coc2cc(O)cc(O)c12 [genestein],effect on neutrophil survival in response to low concentrations of GM-CSF,[1],Neither inhibitor was able to block
C=C[C@@]1(C)CC(=O)[C@]2(O)[C@@]3(C)[C@@H](O)CCC(C)(C)[C@@H]3[C@H](O)[C@H](OC(C)=O)[C@@]2(C)O1 [forskolin],cell survival,[1]; forskolin in the absence of GM-CSF (from 27% without),46%
GM-CSF: cytokine; human GM-CSF used to stimulate cells via the GM-CSF receptor,phosphorylation of Ser473 of Akt,Akt,the magnitude was reduced and the kinetics were delayed
same,PKA activity,PKA,higher and more sustained
same,"GM-CSF concentration resulting in phosphorylation of JAK2, STAT5 and ERK","JAK2, STAT5 and ERK",> 10 pM
same,cell survival,[1]; 0.1 pM GM-CSF,90%
same,cell survival,[1]; 1 pM GM-CSF,83%
same,GM-CSF concentration at which Tyr577 phosphorylation was detectable,"[2]; TF-1 cells, 10 min stimulation",greater than 10 pM
same,GM-CSF concentration at which phosphorylation of Ser585 decreased,"[2]; TF-1 cells, 10 min stimulation",10 pM
same,GM-CSF concentration at which phosphorylation of Ser585 increased,"[2]; TF-1 cells, 10 min stimulation",< 3 pM
same,GM-CSF concentration at which phosphorylation of Ser585 was virtually absent,"[2]; TF-1 cells, 10 min stimulation",over 100 pM
same,"GM-CSF concentration that promotes Ser585 phosphorylation, 14-3-3 binding and p85 recruitment",[2]; low concentration signal,< 3 pM
N#C/C(=C/c1ccc(O)c(O)c1)C(=O)NCc1ccccc1 [AG490],effect on neutrophil survival in response to low concentrations of GM-CSF,[1],Neither inhibitor was able to block; also recorded: survival was increased
